Measurements as given in the NIST ThermoML archive (doi:10.1021/je400858t).

Key:
[1] = for mass density / thermal conductivity / viscosity: 101.33 kPa, Liquid; for mass density: Vibrating tube method; for thermal conductivity: Parallel plate method; for viscosity: Cone and plate viscometry; for Glass transition temperature: DTA
[2] = molar heat capacity at constant pressure; conditions: 101.33 kPa, Liquid, Small sample (50 mg) DSC

CCCCCC[n+]1ccn(C)c1.O=S(=O)([N-]S(=O)(=O)C(F)(F)F)C(F)(F)F
[1]
Conditions	mass density [kg/m3]	thermal conductivity [W/m/K]
283 K	1385.63	–
293 K	1376.5	–
300 K	–	0.12
303 K	1367.38	–
313 K	1358.3	–
323 K	1349.27	–
333 K	1340.34	–
343 K	1331.41	–
353 K	1322.54	–
363 K	1313.73	–
375 K	–	0.12

CCOP(=O)([O-])OCC.CCn1cc[n+](C)c1 [1-ethyl-3-methylimidazolium diethyl phosphate]
Conditions	molar heat capacity at constant pressure [J/K/mol]	thermal conductivity [W/m/K]	viscosity [mPa·s]
[1], 283 K	–	–	1280
[1], 293 K	–	–	580
[1], 298 K	–	–	410
[1], 300 K	–	0.19	–
[1], 303 K	–	–	300
[1], 313 K	–	–	168
[1], 323 K	–	–	101
[1], 333 K	–	–	66
[1], 343 K	–	–	45
[1], 375 K	–	0.19	–
[2], 298 K	459.81	–	–
[2], 303 K	465.1	–	–
[2], 308 K	467.74	–	–
[2], 313 K	470.38	–	–
[2], 318 K	475.67	–	–
[2], 323 K	478.31	–	–
[2], 328 K	480.95	–	–
[2], 333 K	486.24	–	–
[2], 338 K	488.88	–	–
[2], 343 K	494.16	–	–

Conditions	Glass transition temperature [°C]
[1]	-66

CCn1cc[n+](C)c1.CS(=O)(=O)[O-] [1-ethyl-3-methylimidazolium methanesulfonate]
[1]
Conditions	thermal conductivity [W/m/K]	viscosity [mPa·s]
283 K	–	450
293 K	–	210
298 K	–	155
300 K	0.21	–
303 K	–	117
313 K	–	70
323 K	–	45
333 K	–	31
343 K	–	23
375 K	0.21	–

Conditions	Glass transition temperature [°C]
[1]	-62

CCn1cc[n+](C)c1.N#C[S-] [1-ethyl-3-methylimidazolium thiocyanate]
[1]
Conditions	thermal conductivity [W/m/K]
300 K	0.21
375 K	0.21

Conditions	Glass transition temperature [°C]
[1]	-94

CCn1cc[n+](C)c1.O=C([O-])C(F)(F)F [1-ethyl-3-methylimidazolium trifluoroacetate]
[1]
Conditions	thermal conductivity [W/m/K]
300 K	0.17
375 K	0.17

CCn1cc[n+](C)c1.O=S(=O)([O-])C(F)(F)F [1-ethyl-3-methylimidazolium trifluoromethanesulfonate]
[1]
Conditions	thermal conductivity [W/m/K]
300 K	0.16
375 K	0.16
